Laboratory results reported in PMC10244169, “Psychedelics promote plasticity by directly binding to BDNF receptor TrkB” (Nature Neuroscience, 2023).

Experiments:
[1] = test system: mice; assay: Head-twitch response; format: in vivo, mouse; parameters: key to Mean, figure 7c (head-twitch response) / Mean Diff., figure 7d, Vehicle:Saline vs. Vehicle:LSD / Mean Diff., figure 7d, Vehicle:Saline vs. M100907:Saline / Mean Diff., figure 7d, M100907:Saline vs. M100907:LSD / Mean, figure 7d (head-twitch response) / Mean Diff., figure 7c, WT:Saline vs. WT:LSD / Head-twitch response, Mean: head twitch counts (scored every 2 min over 30 min); conditions: for Mean, figure 7c (head-twitch response): LSD group
Experimental: Immediately after the last injection, the animals were placed inside a transparent chamber and their activity video-recorded for 30 min. Similarly to previous studies, head twitches were scored as counts every 2 min by observers blinded to treatments and genotypes.

[2] = test system: mice; assay: Repeated forced swimming test (rFST); format: in vivo, mouse
Experimental: rFST was conducted in WT and Y433F^+/− mice as described in literature[33],[92] with minor modifications. Briefly, female and male adult mice were exposed to five consecutive pretest sessions (5 min of duration, 24 h apart). […] The animals were submitted to a 5 min test session 7 days after the drug administration. The apparatus consisted of 5 l glass beaker cylinders (19 cm diameter, 20 cm water column at 23 ± 2 °C). The water was changed between each trial, for each animal. After each session, the animals were dried and kept in a warmed cage before returning to their home cages. The pretest and test sessions were recorded and analyzed by a trained observer blind to treatment and genotype.

[3] = target: T1, WT:Y433F heterodimers (Y433F^+/−) (Rattus norvegicus, UniProt Q63604, Y433F); assay: Split-luciferase PCA of TrkB dimerization in N2a cells; format: cell-based; conditions: for TrkB dimerization time course, group mean (time 0 = 100): TRKB.Y433F; for TrkB dimerization: WT:Y433F heterodimers; for TrkB dimerization (PCA), group mean (vehicle = 100): Y433F+/-
T1 construct: expressed in transfected cells; host or cells: N2a
T1 sequence (Q63604 32-821 Y433F): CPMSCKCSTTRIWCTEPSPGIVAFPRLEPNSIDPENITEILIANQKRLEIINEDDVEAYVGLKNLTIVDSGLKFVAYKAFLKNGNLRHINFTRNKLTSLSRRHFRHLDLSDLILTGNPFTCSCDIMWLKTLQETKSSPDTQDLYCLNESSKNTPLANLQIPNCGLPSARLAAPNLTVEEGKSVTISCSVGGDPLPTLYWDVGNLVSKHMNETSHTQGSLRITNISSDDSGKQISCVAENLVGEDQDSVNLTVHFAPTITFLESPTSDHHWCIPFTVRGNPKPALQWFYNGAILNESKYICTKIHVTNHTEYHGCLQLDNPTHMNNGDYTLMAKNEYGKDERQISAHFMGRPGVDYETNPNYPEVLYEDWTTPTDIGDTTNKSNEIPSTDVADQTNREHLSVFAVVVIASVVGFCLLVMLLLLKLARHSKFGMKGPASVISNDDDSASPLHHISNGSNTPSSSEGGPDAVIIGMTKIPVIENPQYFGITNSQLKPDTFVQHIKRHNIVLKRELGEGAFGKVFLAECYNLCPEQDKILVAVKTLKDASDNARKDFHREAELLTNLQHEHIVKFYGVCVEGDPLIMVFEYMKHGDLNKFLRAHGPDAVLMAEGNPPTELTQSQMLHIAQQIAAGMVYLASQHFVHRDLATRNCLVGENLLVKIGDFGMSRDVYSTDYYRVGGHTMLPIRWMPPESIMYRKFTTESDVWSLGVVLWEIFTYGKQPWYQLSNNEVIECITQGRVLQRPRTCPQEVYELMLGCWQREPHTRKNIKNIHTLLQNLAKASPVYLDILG
T1 sequence (Q63604 32-821, stated change not applied): as the sequence (Q63604 32-821 Y433F) above, with F402Y counted along it
Outline: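 N2a cells transiently co-transfected with split hGLuc-tagged rat TrkB pairs (WT/WT or Y433F/WT) for dimerization; Ketanserin, M100907 or TRKB.FC added 10 min before treatment. Luminescence read after injection of native coelenterazine ([…] final).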

[4] = target: T2, TrkB(Y433F):Fyn (Rattus norvegicus, UniProt Q63604, Y433F); assay: PCA of TrkB interaction with lipid raft Fyn in N2a cells; format: cell-based; conditions: Y433F^+/− dimers
T2 construct: expressed in transfected cells; host or cells: N2a
T2 sequence (Q63604 32-821 Y433F): as the sequence (Q63604 32-821 Y433F) above
Experimental: (§1) Ketanserin, M100907 and TRKB.FC were added to the media 10 min before treatment. The PCA method was performed as previously described[11],[75],[76]. Split humanized Gaussia princeps luciferase (hGLuc) was cloned on the C-terminus of the reporter proteins TrkB (WT and Y433F) and lipid raft Fyn. If the reporter proteins that carry complementary halves of the luciferase interact, the enzyme can refold in its functional conformation and, upon addition of its substrate, produce luminescence proportionally to the amount of reporter proteins interacting at a given time. N2a cells were seeded in 96-well plates with opaque walls and transparent bottom (PerkinElmer, ViewPlate 96). Cells were transfected with Lipofectamine 2000 according to the manufacturer’s instructions 24 h post-plating with the PCA pair plasmids: phGLuc(1C)-TrkB(WT) or the mutant phGLuc(1C)-TrkB(Y433F) and phGLuc(2 C)-TrkB(WT) for the dimerization experiments; phGLuc(1C)-lipid raft Fyn and phGLuc(2C)-TrkB(WT) or phGLuc(2C)-TrkB(Y433F) for the lipid raft localization experiments. Forty-eight hours post transfection, cells were treated (40 min, 37 °C) in phenol red-free Dulbecco’s modified Eagle medium without serum. […] The PCA signal was detected with the substrate for the luciferase, native coelenterazine, which was injected into each well directly in the plate reader at a final concentration of […]. One data point was excluded from Fig. 4b by applying Grubb’s method for outlier detection test, which detected it as a significant outlier.

[5] = target: T3, TrkB(WT):Fyn (Rattus norvegicus, UniProt Q63604); assay: as above; format: cell-based
T3 construct: expressed in transfected cells; host or cells: N2a
T3 sequence (Q63604 32-821): as the sequence (Q63604 32-821 Y433F) above, with F402Y counted along it
Experimental: as §1

[6] = 7 d, saline minus LSD, Bonferroni's multiple comparisons test

CCN(CC)C(=O)C1C=C2c3cccc4[nH]cc(c34)CC2N(C)C1 (stereo not shown) [LSD, lysergic acid diethylamide]
Mean, figure 7d (head-twitch response) ([1]; M100907:LSD group): 0.4
Mean, figure 7d (head-twitch response) ([1]; Vehicle:LSD group): 33
Mean, figure 7c (head-twitch response) ([1]; WT mice): 76.8
Mean Diff., figure 7c, WT:Saline vs. WT:LSD ([1]; WT mice, saline minus LSD, Bonferroni's multiple comparisons test): -73.8
Mean, figure 7c (head-twitch response) ([1]; Y433F+/- mice): 67.8
Mean Diff., figure 7c, Y433F+/-:Saline vs. Y433F+/-:LSD ([1]; Y433F+/- mice, saline minus LSD, Bonferroni's multiple comparisons test): -63.2
head-twitch response ([1]; Y433F^+/− mice treated with LSD 0.1 mg kg^−1): occurs normally
Head-twitch response, Mean ([1]; ext fig 7c, TrkB.WT mice, Time (min) 2): 2.6
Head-twitch response, Mean ([1]; ext fig 7c, TrkB.WT mice, Time (min) 4): 6.4
Head-twitch response, Mean ([1]; ext fig 7c, TrkB.WT mice, Time (min) 6): 10.6
Head-twitch response, Mean ([1]; ext fig 7c, TrkB.WT mice, Time (min) 8): 7.8
Head-twitch response, Mean ([1]; ext fig 7c, TrkB.WT mice, Time (min) 10): 6.6
Head-twitch response, Mean ([1]; ext fig 7c, TrkB.WT mice, Time (min) 12): 7.6
Head-twitch response, Mean ([1]; ext fig 7c, TrkB.WT mice, Time (min) 14): 5.4
Head-twitch response, Mean ([1]; ext fig 7c, TrkB.WT mice, Time (min) 16): 4.8
Head-twitch response, Mean ([1]; ext fig 7c, TrkB.WT mice, Time (min) 18): 3.6
Head-twitch response, Mean ([1]; ext fig 7c, TrkB.WT mice, Time (min) 20): 4
Head-twitch response, Mean ([1]; ext fig 7c, TrkB.WT mice, Time (min) 22): 4.6
Head-twitch response, Mean ([1]; ext fig 7c, TrkB.WT mice, Time (min) 24): 4.8
Head-twitch response, Mean ([1]; ext fig 7c, TrkB.WT mice, Time (min) 26): 2
Head-twitch response, Mean ([1]; ext fig 7c, TrkB.WT mice, Time (min) 28): 3.2
Head-twitch response, Mean ([1]; ext fig 7c, TrkB.WT mice, Time (min) 30): 2.6
Head-twitch response, Mean ([1]; ext fig 7c, TrkB.Y433F mice, Time (min) 2): 3
Head-twitch response, Mean ([1]; ext fig 7c, TrkB.Y433F mice, Time (min) 4): 6.2
Head-twitch response, Mean ([1]; ext fig 7c, TrkB.Y433F mice, Time (min) 6): 9.4
Head-twitch response, Mean ([1]; ext fig 7c, TrkB.Y433F mice, Time (min) 8): 8.8
Head-twitch response, Mean ([1]; ext fig 7c, TrkB.Y433F mice, Time (min) 10): 6.8
Head-twitch response, Mean ([1]; ext fig 7c, TrkB.Y433F mice, Time (min) 12): 6.2
Head-twitch response, Mean ([1]; ext fig 7c, TrkB.Y433F mice, Time (min) 14): 4.2
Head-twitch response, Mean ([1]; ext fig 7c, TrkB.Y433F mice, Time (min) 16): 5
Head-twitch response, Mean ([1]; ext fig 7c, TrkB.Y433F mice, Time (min) 18): 3.2
Head-twitch response, Mean ([1]; ext fig 7c, TrkB.Y433F mice, Time (min) 20): 2.6
Head-twitch response, Mean ([1]; ext fig 7c, TrkB.Y433F mice, Time (min) 22): 3
Head-twitch response, Mean ([1]; ext fig 7c, TrkB.Y433F mice, Time (min) 24): 3.2
Head-twitch response, Mean ([1]; ext fig 7c, TrkB.Y433F mice, Time (min) 26): 2.2
Head-twitch response, Mean ([1]; ext fig 7c, TrkB.Y433F mice, Time (min) 28): 1.8
Head-twitch response, Mean ([1]; ext fig 7c, TrkB.Y433F mice, Time (min) 30): 2.4
Head-twitch response, Mean ([1]; ext fig 7d, Time (min) 2): 0.2
Head-twitch response, Mean ([1]; ext fig 7d, Time (min) 4): 2.2
Head-twitch response, Mean ([1]; ext fig 7d, Time (min) 6): 2.6
Head-twitch response, Mean ([1]; ext fig 7d, Time (min) 8): 4.2
Head-twitch response, Mean ([1]; ext fig 7d, Time (min) 10): 3
Head-twitch response, Mean ([1]; ext fig 7d, Time (min) 12): 3.8
Head-twitch response, Mean ([1]; ext fig 7d, Time (min) 14): 3.2
Head-twitch response, Mean ([1]; ext fig 7d, Time (min) 16): 2.2
Head-twitch response, Mean ([1]; ext fig 7d, Time (min) 18): 2.4
Head-twitch response, Mean ([1]; ext fig 7d, Time (min) 20): 1.8
Head-twitch response, Mean ([1]; ext fig 7d, Time (min) 22): 1.2
Head-twitch response, Mean ([1]; ext fig 7d, Time (min) 24): 2.2
Head-twitch response, Mean ([1]; ext fig 7d, Time (min) 26): 1.4
Head-twitch response, Mean ([1]; ext fig 7d, Time (min) 28): 1.8
Head-twitch response, Mean ([1]; ext fig 7d, Time (min) 30): 0.8
Mean Diff., figure 7d, Vehicle:Saline vs. Vehicle:LSD ([1]; saline minus LSD, Bonferroni's multiple comparisons test): -30.6
Mean Diff., figure 7d, M100907:Saline vs. M100907:LSD ([1]; with M100907, saline minus LSD, Bonferroni's multiple comparisons test): -0.2
Mean, figure 7g (repeated forced swimming test) ([2]; 7 d, pretest = 100): 81.36
Mean Diff., figure 7f, WT+SAL vs. WT+LSD [2, 6]: 34.99
Mean Diff., figure 7f, Y433F+/-+SAL vs. Y433F+/-+LSD [2, 6]: 7.08
Mean Diff. vs. Vehicle, figure 7g ([2]; 7 d, vehicle minus treated, Bonferroni's multiple comparisons test): 13.93
antidepressant-like effect in rFST ([2]; WT mice, 7 days after single administration): sustained antidepressant-like effect
Mean, figure 7f (repeated forced swimming test) ([2]; WT+LSD, 7 d, pretest = 100): 60.98
Mean, figure 7f (repeated forced swimming test) ([2]; Y433F+/-+LSD, 7 d, pretest = 100): 93.99
antidepressant-like effect in rFST ([2]; Y433F^+/− mice): not Y433F^+/− mice
TrkB dimerization time course, group mean (time 0 = 100) ([3]; time 15): 129.4
TrkB dimerization time course, group mean (time 0 = 100) ([3]; time 60): 136.7
TrkB dimerization time course, group mean (time 0 = 100) ([3]; time 120): 108.3
TrkB dimerization time course, group mean (time 0 = 100) ([3]; time 240): 108.9
TrkB dimerization time course, group mean (time 0 = 100) ([3]; time 480): 60.33
TrkB dimerization [3]: this effect is abolished
TrkB dimerization (PCA), group mean (vehicle = 100) ([3]; 1nM): 113.3
TrkB dimerization (PCA), group mean (vehicle = 100) ([3]; 10nM): 121
TrkB dimerization (PCA), group mean (vehicle = 100) ([3]; 100nM): 118.1
TrkB dimerization (PCA), group mean (vehicle = 100) ([3]; 1uM): 109.7
TrkB interaction with Fyn [4]: this effect is lost
TrkB interaction with Fyn [5]: increase TrkB interaction with lipid raft-restricted Fyn

COc1cccc([C@H](O)C2CCN(CCc3ccc(F)cc3)CC2)c1OC [M100907]
effect on LSD-induced head-twitch response ([1]; M100907 0.5 mg kg^−1, 30 min before LSD): blocked
Mean, figure 7d (head-twitch response) ([1]; M100907:Saline group): 0.2
Head-twitch response, Mean ([1]; ext fig 7d, Time (min) 2): 0.2
Head-twitch response, Mean ([1]; ext fig 7d, Time (min) 4): 0
Head-twitch response, Mean ([1]; ext fig 7d, Time (min) 6): 0
Head-twitch response, Mean ([1]; ext fig 7d, Time (min) 8): 0
Head-twitch response, Mean ([1]; ext fig 7d, Time (min) 10): 0
Head-twitch response, Mean ([1]; ext fig 7d, Time (min) 12): 0
Head-twitch response, Mean ([1]; ext fig 7d, Time (min) 14): 0
Head-twitch response, Mean ([1]; ext fig 7d, Time (min) 16): 0
Head-twitch response, Mean ([1]; ext fig 7d, Time (min) 18): 0
Head-twitch response, Mean ([1]; ext fig 7d, Time (min) 20): 0
Head-twitch response, Mean ([1]; ext fig 7d, Time (min) 22): 0
Head-twitch response, Mean ([1]; ext fig 7d, Time (min) 24): 0
Head-twitch response, Mean ([1]; ext fig 7d, Time (min) 26): 0
Head-twitch response, Mean ([1]; ext fig 7d, Time (min) 28): 0
Head-twitch response, Mean ([1]; ext fig 7d, Time (min) 30): 0
Mean Diff., figure 7d, Vehicle:Saline vs. M100907:Saline ([1]; vehicle minus M100907, Bonferroni's multiple comparisons test): 2.2
effect of pretreatment on antidepressant-like effect of LSD in rFST ([2]; M100907 0.5 mg kg^−1): did not prevent the antidepressant-like effect of LSD

CN(C)CCc1c[nH]c2cccc(O)c12 [PSI, psilocin]
TrkB dimerization [3]: this effect is abolished
TrkB dimerization (PCA), group mean (vehicle = 100) ([3]; 1nM): 110.2
TrkB dimerization (PCA), group mean (vehicle = 100) ([3]; 10nM): 90.04
TrkB dimerization (PCA), group mean (vehicle = 100) ([3]; 100nM): 84.39
TrkB dimerization (PCA), group mean (vehicle = 100) ([3]; 1uM): 73.58
TrkB interaction with Fyn [4]: this effect is lost
TrkB interaction with Fyn [5]: increase TrkB interaction with lipid raft-restricted Fyn
